From ChEMBL document CHEMBL5346873, “Strategic modification of low-activity natural antimicrobial peptides confers antibacterial potential in vitro and in vivo” (Eur J Med Chem, 2023)
Calls of active or inactive are those of the source. The calls are words filed in the database; no cut-off is given here.

What was measured:
Staphylococcus aureus = test: Bactericidal activity against Staphylococcus aureus incubated for overnight; type: functional
Aeromonas hydrophila [1] = test: Antibacterial activity against Aeromonas hydrophila incubated for 16 to 20 hrs; type: functional; conditions: time 16-20 hrs
Acinetobacter baumannii [2] = test: Bactericidal activity against Acinetobacter baumannii incubated for overnight; type: functional
Klebsiella aerogenes [3] = test: Synergistic antibacterial activity against Enterobacter aerogenes in presence of meropenem by checkerboard microtiter plate assay; type: functional
Klebsiella oxytoca = test: Antibacterial activity against Klebsiella oxytoca incubated for 16 to 20 hrs; type: functional; conditions: time 16-20 hrs
Klebsiella aerogenes [4] = test: Bactericidal activity against Enterobacter aerogenes incubated overnight; type: functional
Nakaseomyces glabratus = test: Antifungal activity against Candida glabrata incubated for 16 to 20 hrs; type: functional; conditions: time 16-20 hrs
Klebsiella pneumoniae [5] = test: Antibacterial activity against Klebsiella pneumoniae expressing NDM-1 in presence of human serum; type: functional, organism-based
Vibrio vulnificus [6] = test: Antibacterial activity against Vibrio vulnificus in presence of proteinase K; type: functional, organism-based
Vibrio vulnificus [7] = test: Bactericidal activity against Vibrio vulnificus V2 incubated overnight; type: functional
Salmonella enterica = test: Bactericidal activity against Salmonella enterica incubated overnight; type: functional
Streptococcus agalactiae [8] = test: Bactericidal activity against Streptococcus agalactiae incubated overnight; type: functional
Streptococcus agalactiae [9] = test: Synergistic antibacterial activity against Streptococcus agalactiae assessed as meropenem MIC by checkerboard microtiter plate assay; type: functional
Escherichia coli [10] = test: Bactericidal activity against Escherichia coli incubated overnight; type: functional
Cell membrane = test: Induction of membrane depolarization in Vibrio vulnificus at 100 ug/ml by DiBAC4(3) dye based fluorescence analysis; type: subcellular; conditions: dose 100.0 µg/ml
Salmonella typhimurium = test: Antibacterial activity against Salmonella typhimurium incubated for 16 to 20 hrs; type: functional, Salmonella enterica subsp. enterica serovar Typhimurium; conditions: Salmonella enterica; time 16-20 hrs
Klebsiella pneumoniae [11] = test: Bactericidal activity against NDM Klebsiella pneumoniae incubated overnight; type: functional
Vibrio vulnificus [12] = test: Antibacterial activity against Vibrio vulnificus in presence of 0.1 ug/ml pepsin; type: functional, organism-based
Vibrio vulnificus [13] = test: Antibacterial activity against Vibrio vulnificus V1 incubated for 16 to 20 hrs; type: functional; conditions: time 16-20 hrs
[14] = Cytotoxicity against human HaCaT cells incubated for 24 hrs by alamar blue assay; type: toxicity, cell-based; conditions: read-out: LD50
Vibrio vulnificus [15] = test: Antibiofilm activity against Vibrio vulnificus 204 assessed as inhibition of biofilm formation at 25 to 100 ug/ml incubated for 24 hrs by crystal violet staining based assay; type: functional, organism-based; conditions: dose 25-100 µg/ml
Streptococcus agalactiae [16] = test: Synergistic antibacterial activity against Streptococcus agalactiae assessed as fractional inhibitory concentration in presence of doxycycline by checkerboard microtiter plate assay; type: functional
Vibrio vulnificus [17] = test: Antibiofilm activity against Vibrio vulnificus V3 assessed as inhibition of biofilm formation at 50 to 100 ug/ml incubated for 24 hrs by crystal violet staining based assay; type: functional, organism-based; conditions: dose 50-100 µg/ml
Klebsiella pneumoniae [18] = test: Synergistic antibacterial activity against Klebsiella pneumoniae expressing NDM1 assessed as fractional inhibitory concentration in presence of doxycycline by checkerboard microtiter plate assay; type: functional
Vibrio vulnificus [19] = test: Antibacterial activity against Vibrio vulnificus V2 incubated for 16 to 20 hrs; type: functional; conditions: time 16-20 hrs
Streptococcus agalactiae [20] = test: Synergistic antibacterial activity against Streptococcus agalactiae in presence of meropenem by checkerboard microtiter plate assay; type: functional
Vibrio vulnificus [21] = test: Antibacterial activity against Vibrio vulnificus in presence of 1 to 10 ug/ml trypsin; type: functional, organism-based
Escherichia coli [22] = test: Synergistic antibacterial activity against Escherichia coli assessed as fractional inhibitory concentration in presence of meropenem by checkerboard microtiter plate assay; type: functional
[23] = Cytotoxicity against human HaCaT cells incubated for 24 hrs by LDH assay; type: toxicity, cell-based; conditions: read-out: LD50
Vibrio vulnificus [24] = test: Antibacterial activity against Vibrio vulnificus in presence of 1 to 10 ug/ml pepsin; type: functional, organism-based
Vibrio vulnificus [25] = test: Antibiofilm activity against Vibrio vulnificus V2 assessed as inhibition of biofilm formation at 25 to 100 ug/ml incubated for 24 hrs by crystal violet staining based assay; type: functional, organism-based; conditions: dose 25-100 µg/ml
Vibrio vulnificus [26] = test: Antibacterial activity against Vibrio vulnificus in presence of 0.1 ug/ml trypsin; type: functional, organism-based
Vibrio vulnificus [27] = test: Synergistic antibacterial activity against Vibrio vulnificus assessed as doxycycline MIC by checkerboard microtiter plate assay; type: functional
Pseudomonas aeruginosa [28] = test: Additive antibacterial activity against Pseudomonas aeruginosa assessed as fractional inhibitory concentration in presence of meropenem by checkerboard microtiter plate assay; type: functional
Acinetobacter baumannii [29] = test: Synergistic antibacterial activity against Acinetobacter baumannii in presence of doxycycline by checkerboard microtiter plate assay; type: functional
Klebsiella aerogenes [30] = test: Synergistic antibacterial activity against Enterobacter aerogenes assessed as fractional inhibitory concentration in presence of meropenem by checkerboard microtiter plate assay; type: functional
Vibrio vulnificus [31] = test: Antibacterial activity against Vibrio vulnificus 204 assessed as LPS neutralization at 0.25 to 2 times MIC measured after 1 hr by LAL assay; type: functional, organism-based
Aeromonas hydrophila [32] = test: Bactericidal activity against Aeromonas hydrophila incubated overnight; type: functional
Vibrio vulnificus [33] = test: Antibacterial activity against Vibrio vulnificus 204 incubated for 16 to 20 hrs; type: functional; conditions: time 16-20 hrs
[34] = system: Staphylococcus haemolyticus; test: Bactericidal activity against Staphylococcus haemolyticus incubated overnight; type: functional
Vibrio vulnificus [35] = test: Antibacterial activity against Vibrio vulnificus 204 in presence of human serum; type: functional, organism-based
Vibrio vulnificus [36] = test: Antibacterial activity against Vibrio vulnificus in presence of pancreatin; type: functional, organism-based
Vibrio vulnificus [37] = test: Antibacterial activity against Vibrio vulnificus at pH 2 to 10; type: functional, organism-based
Vibrio vulnificus [38] = test: Antibiofilm activity against Vibrio vulnificus V1 assessed as inhibition of biofilm formation at 25 ug/ml incubated for 24 hrs by crystal violet staining based assay; type: functional, organism-based; conditions: dose 25.0 µg/ml
Vibrio vulnificus [39] = test: Synergistic antibacterial activity against Vibrio vulnificus in presence of meropenem by checkerboard microtiter plate assay; type: functional
Vibrio vulnificus [40] = test: Antibiofilm activity against Vibrio vulnificus V2 assessed as inhibition of biofilm formation at 50 to 100 ug/ml incubated for 24 hrs by crystal violet staining based assay; type: functional, organism-based; conditions: dose 50-100 µg/ml
Candida tropicalis = test: Fungicidal activity against Candida tropicalis incubated overnight; type: functional
Edwardsiella tarda [41] = test: Bactericidal activity against Edwardsiella tarda incubated overnight; type: functional
Pseudomonas aeruginosa [42] = test: Additive antibacterial activity against Pseudomonas aeruginosa in presence of meropenem by checkerboard microtiter plate assay; type: functional
Vibrio vulnificus [43] = test: Synergistic antibacterial activity against Vibrio vulnificus assessed as fractional inhibitory concentration in presence of doxycycline by checkerboard microtiter plate assay; type: functional
Acinetobacter baumannii [44] = test: Antibacterial activity against Acinetobacter baumannii; type: functional
Vibrio vulnificus [45] = test: Antibiofilm activity against Vibrio vulnificus V2 assessed as inhibition of biofilm formation at 25 ug/ml incubated for 24 hrs by crystal violet staining based assay; type: functional, organism-based; conditions: dose 25.0 µg/ml
Streptococcus agalactiae [46] = test: Synergistic antibacterial activity against Streptococcus agalactiae assessed as doxycycline MIC by checkerboard microtiter plate assay; type: functional
Vibrio vulnificus [47] = test: Antibiofilm activity against Vibrio vulnificus V1 assessed as inhibition of biofilm formation at 25 to 100 ug/ml incubated for 24 hrs by crystal violet staining based assay; type: functional, organism-based; conditions: dose 25-100 µg/ml
Edwardsiella tarda [48] = test: Antibacterial activity against Edwardsiella tarda incubated for 16 to 20 hrs; type: functional; conditions: time 16-20 hrs
Pseudomonas aeruginosa [49] = test: Antibacterial activity against Pseudomonas aeruginosa incubated for 16 to 20 hrs; type: functional; conditions: time 16-20 hrs
Enterococcus faecium = test: Antibacterial activity against Enterococcus faecium incubated for 16 to 20 hrs; type: functional; conditions: time 16-20 hrs
Vibrio vulnificus [50] = test: Synergistic antibacterial activity against Vibrio vulnificus in presence of doxycycline by checkerboard microtiter plate assay; type: functional
Klebsiella pneumoniae [51] = test: Antibacterial activity against NDM Klebsiella pneumoniae incubated for 16 to 20 hrs; type: functional; conditions: time 16-20 hrs

H-KKCIAKAILKKAKKLLKKLVNP-OH
MBC (Staphylococcus aureus): > 100 µg/mL
MIC (Aeromonas hydrophila [1]): > 100 µg/mL
MBC (Acinetobacter baumannii [2]): 1.56 µg/mL
MIC (Klebsiella aerogenes [3]): 0.097 µg/mL
MIC (Klebsiella oxytoca): 50 µg/mL
MBC (Klebsiella aerogenes [4]): 12.5 µg/mL
MIC (Nakaseomyces glabratus): > 100 µg/mL
Activity (Klebsiella pneumoniae [5]): Active
Activity (Vibrio vulnificus [6]): Active
MBC (Vibrio vulnificus [7]): 12.5 µg/mL
MBC (Salmonella enterica): 12.5 µg/mL
MBC (Streptococcus agalactiae [8]): 3.12 µg/mL
MIC (Streptococcus agalactiae [9]): 0.002 µg/mL
MBC (Escherichia coli [10]): 12.5 µg/mL
Activity (Cell membrane): Active
MIC (Salmonella typhimurium): 50 µg/mL
MBC (Klebsiella pneumoniae [11]): 25 µg/mL
Activity (Vibrio vulnificus [12]): Active
MIC (Vibrio vulnificus [13]): 12.5 µg/mL
CC50 at 24 h [14]: > 100 µg/mL
Activity (Vibrio vulnificus [15]): Active
FIC (Streptococcus agalactiae [16]): 0.14
Activity (Vibrio vulnificus [17]): Active
FIC (Klebsiella pneumoniae [18]): 0.37
MIC (Vibrio vulnificus [19]): 12.5 µg/mL
MIC (Streptococcus agalactiae [20]): 0.195 µg/mL
Activity (Vibrio vulnificus [21]): Active
FIC (Escherichia coli [22]): 0.07
CC50 at 24 h [23]: > 100 µg/mL
Activity (Vibrio vulnificus [24]): Active
Activity (Vibrio vulnificus [25]): Active
Activity (Vibrio vulnificus [26]): Active
MIC (Vibrio vulnificus [27]): 0.006 µg/mL
FIC (Pseudomonas aeruginosa [28]): 0.53
MIC (Acinetobacter baumannii [29]): 0.048 µg/mL
FIC (Klebsiella aerogenes [30]): 0.14
Activity (Vibrio vulnificus [31]): inactive
MBC (Aeromonas hydrophila [32]): > 100 µg/mL
MIC (Vibrio vulnificus [33]): 6.25 µg/mL
MBC [34]: < 1.56 µg/mL
Activity (Vibrio vulnificus [35]): Active
Activity (Vibrio vulnificus [36]): Active
Activity (Vibrio vulnificus [37]): Active
Activity (Vibrio vulnificus [38]): inactive
MIC (Vibrio vulnificus [39]): 0.195 µg/mL
Activity (Vibrio vulnificus [40]): Active
MFC (Candida tropicalis): > 100 µg/mL
MBC (Edwardsiella tarda [41]): > 100 µg/mL
MIC (Pseudomonas aeruginosa [42]): 0.78 µg/mL
FIC (Vibrio vulnificus [43]): 0.14
MIC (Acinetobacter baumannii [44]): 3.12 µg/mL
Activity (Vibrio vulnificus [45]): inactive
MIC (Streptococcus agalactiae [46]): 0.006 µg/mL
Activity (Vibrio vulnificus [47]): Active
MIC (Edwardsiella tarda [48]): > 100 µg/mL
MIC (Pseudomonas aeruginosa [49]): 25 µg/mL
MIC (Enterococcus faecium): > 100 µg/mL
MIC (Vibrio vulnificus [50]): 0.195 µg/mL
MIC (Klebsiella pneumoniae [51]): 25 µg/mL
